Read-outs that look alike come from different tables or passages of the source.
Tests used:
[1] = test system: participants with narcolepsy; experiment: Safety / adverse events, narcolepsy study; assay type: in vivo, human
Protocol: Safety assessments included a physical examination, ECG, clinical laboratory tests, and assessment of adverse events (AEs).
Demographic, narcolepsy history, and safety data were summarized for the safety population, which included all participants who received ≥1 dose of study drug. No formal statistical testing was performed on these parameters.

[2] = test system: subjects with EDS due to OSA; experiment: Standardized on-road highway driving test, OSA study; assay type: in vivo, human
Protocol: This was a randomized, double-blind, placebo-controlled, crossover, on-road driving study in subjects with EDS due to OSA. A total of 40 adult subjects were planned for enrollment, and 34 subjects were randomized. Subjects received either solriamfetol (150 mg QD for 3 days, followed by 300 mg QD for 4 days) or matching placebo for 7 days, and then crossed over to receive the other treatment regimen for 7 days (FIG. 4). […] The PVT was administered predose and prior to each driving test. Actigraphy and a sleep diary were used to assess daily sleep patterns. The Toronto Hospital Alertness Test (THAT) was administered at baseline and at the end of each treatment period. A Follow-up Visit was performed approximately 7 days after the final dose of study drug. Subjects were recruited at clinical sites. Eligibility was determined through screening procedures (including a Maintenance of Wakefulness Test [MWT]) at the clinical sites after the washout of prohibited medications, and a practice driving test at the driving test site. A total of 40 adult subjects were planned for enrollment; 34 subjects were randomized and analyzed for safety and efficacy.
Assessments to determine driving performance included: standard deviation of lateral position (SDLP; Verster and Roth 2011; Raemakers 2017), standard deviation of speed (SDS), and number of driving lapses (also known as lane drift, defined as deviations>100 cm from the mean lateral position and from the absolute lateral position for 8 seconds; Vinckenbosch 2020). Driving performance was assessed using a standardized on-road driving test on Day 7 (Visit 4) and on Day 14 (Visit 5). A practice driving test was performed during the screening period to familiarize the subject with the vehicle and test scenario, assess if the subject could adequately operate the manual transmission vehicle, and determine if any safety concerns existed that excluded the subject from participating in the study.
During each drive, subjects operated a specially instrumented vehicle for approximately 1 hour over a 100 km (61 mile) primary highway circuit. During each driving test, each subject was accompanied by a licensed driving instructor who had access to dual controls (i.e., brakes, clutch, and accelerator). The subject or instructor could stop the test if either considered it unsafe to continue. The subject was instructed to drive with a steady lateral position between the delineated boundaries of the slower (right) traffic lane, while maintaining a constant speed of
95 km/h (58 mph). Subjects could deviate from these instructions only to pass a slower vehicle, to respond to a slower speed in traffic ahead of him/her and to leave and re-enter the highway at the turnaround point. During the drive, the vehicle's speed and lateral distance to the left lane line were continuously recorded and captured on an onboard computer disk file. Subjects were transported to and from the driving circuit on each test day.
The primary analysis was based on the mITT population. The primary outcome measure of mean change in SDLP was analyzed using a repeated mixed effect analysis of variance (ANOVA) model. The model included treatment (solriamfetol and placebo), driving performance test (2 hours postdose and 6 hours postdose), treatment period, treatment sequence, and treatment by driving performance test interaction as fixed effects and subject as a random effect. The 2-sided 95% confidence intervals of solriamfetol-placebo changes for SDLP based on the repeated mixed effect ANOVA model was constructed for each driving performance test.
Individual changes (solriamfetol minus placebo) in driving performance were measured by SDLP at 2 hours and 6 hours postdose. The Maximum McNemar symmetry analyses (Laska et al. 2012) were used to detect an asymmetry in the distribution of the change in driving performance at 2 hours and 6 hours post-dose. […]

[3] = test system: subjects with EDS due to OSA; experiment: Toronto Hospital Alertness Test (THAT), OSA study; assay type: in vivo, human
Protocol: THAT is analyzed using a mixed effect analysis of covariance (ANCOVA) model. The model includes baseline, treatment (JZP-110 and placebo), treatment period, treatment sequence as fixed effects and subject as a random effect. *p-value is nominal.
The THAT is a 10-item self-report questionnaire designed to measure perceived alertness in the preceding week (Shapiro 2006). The test was administered at baseline and prior to administration of study drug at Visits 4 and 5

[4] = cited from earlier work
[5] = 2 hours postdose, mITT, primary analysis, listed as JZP-110
[6] = 2 hours postdose, sequence JZP-110/Placebo, mITT
[7] = 2 hours postdose, sequence Placebo/JZP-110, mITT
[8] = 6 hours postdose, sequence JZP-110/Placebo, mITT
[9] = 6 hours postdose, sequence Placebo/JZP-110, mITT

## NC(=O)OC[C@H](N)Cc1ccccc1 [Solriamfetol, (R)-2-amino-3-phenylpropyl carbamate]
[1]; in vivo
  serious or fatal TEAEs: no serious or fatal TEAEs
[1]; while on solriamfetol
  participants experiencing a TEAE, n (%): 17 (74%)
[1]; while taking solriamfetol
  discontinuation due to AEs: No participant discontinued
[2]; 2 hours and 6 hours post-dose, mITT
  Maximum McNemar test, distribution of change in driving performance: did not show asymmetry
[2]; 2 hours postdose
  driving lapses, LS mean difference solriamfetol vs placebo: −1.128 lapses
  standard deviation of speed (SDS), LS mean difference: 0.068 km/h
[2]; 2 hours postdose, day 7, 300 mg/day, mITT
  SDLP, mean (SD), observed: 18.83 (3.690) cm
[2]; 2 hours postdose, mITT
  SDLP, mean (SD) difference (JZP-110 − Placebo): −1.11 (2.520) cm
  SDLP, median difference (JZP-110 − Placebo): −0.78 cm
  SDLP, median, observed: 18.39 cm
[2]; 2 hours postdose, mITT, primary analysis
  SDLP, LS mean (SE): 18.83 cm
[2]; [5]
  SDLP, LS mean (SE): 18.83 (0.627) cm
  SDLP, LS mean difference (JZP-110 − Placebo): −1.084 cm
[2]; [6]
  SDLP, mean (SD): 18.58 (3.831) cm
  SDLP, mean difference JZP-110 vs placebo: −0.26 cm
  SDLP, median: 17.98 cm
  SDLP, median difference JZP-110 vs placebo: −0.18 cm
[2]; [7]
  SDLP, mean difference JZP-110 vs placebo: −1.91 cm
  SDLP, median: 20.00 cm
  SDLP, median difference JZP-110 vs placebo: −2.46 cm
[2]; 2 hours postdose, sequence Placebo/JZP-110, mITT, listed as JZP-110
  SDLP, mean (SD): 19.08 (3.643) cm
[2]; 2 hours postdose, sequence Placebo/JZP-110, mITT, listed as solriamfetol
  SDLP, mean (SD): 19.08 cm
[2]; 6 hours postdose
  driving lapses, LS mean difference solriamfetol vs placebo: 0.050 lapses
  standard deviation of speed (SDS), LS mean difference: −0.109 km/h
[2]; 6 hours postdose, PP population
  SDLP, LS mean difference, sensitivity analysis: −1.037 cm
[2]; 6 hours postdose, mITT
  SDLP, LS mean (SE): 19.24 (0.631) cm
  SDLP, LS mean difference (JZP-110 − Placebo): −0.804 cm
[2]; [8]
  SDLP, mean (SD): 19.23 (3.224) cm
  SDLP, mean difference JZP-110 vs placebo: 0.20 cm
  SDLP, median: 18.92 cm
  SDLP, median difference JZP-110 vs placebo: 0.43 cm
[2]; [9]
  SDLP, mean difference JZP-110 vs placebo: −1.91 cm
  SDLP, median: 19.24 cm
  SDLP, median difference JZP-110 vs placebo: −1.33 cm
[2]; 6 hours postdose, sequence Placebo/JZP-110, mITT, listed as JZP-110
  SDLP, mean (SD): 19.23 (3.593) cm
[2]; 6 hours postdose, sequence Placebo/JZP-110, mITT, listed as solriamfetol
  SDLP, mean (SD): 19.23 cm
[2]; placebo as initial treatment, both time points (2 and 6 hours postdose)
  SDLP, difference in median values between the 2 treatments (solriamfetol-placebo): −1.91 cm
[2]; solriamfetol condition
  subjects who failed to complete the driving test: 3 subjects
[2]; threshold of 1.0 cm, 2 h post dose
  single McNemar test: proportion improved drivers versus impaired: 29.4%
[3]; PP population
  THAT total score, LS mean difference, sensitivity analysis: 2.983
[3]; end of treatment period, mITT
  THAT total score, LS mean (SE): 27.52
  THAT total score, mean (SD): 27.5 (7.60)
  THAT total score, median: 28.5
[3]; end of treatment period, mITT, listed as JZP-110
  THAT total score, LS mean (SE): 27.52 (1.162)
[3]; mITT
  THAT median total score, difference vs placebo: 4.0
  THAT total score, LS mean difference (JZP-110 − Placebo): 3.579
[4]; fasting conditions
  mean half-life: 5.9 h
  median time to peak plasma concentration: 2 h
[4]; fed conditions
  mean half-life: 6.1 h
  median time to peak plasma concentration: 3 h

From patent US20260199282A1, “METHODS AND COMPOSITIONS FOR IMPROVING DRIVING PERFORMANCE” (priority 2022, published 2026)
